Source: ChEMBL document CHEMBL1201862, “PubChem BioAssay data set” (2004)
Calls of active or inactive are those of the source.

Tests used:
[1] = Shn3 3'UTR reporter inhibitors, dose response, cell-based, Clone20 osteoblasts, firefly luciferase, cherry-picked (AID 624132); assay type: functional;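 further: firefly luciferase luminescence from reporter carrying the Shn3 3'UTR in osteoblasts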
[2] = HepG2 cell cytotoxicity, dose response, cytotoxicity control for Shn3 inhibitor project, CellTiter-Glo, cherry-picked (AID 624134); assay type: functional, cell-based
[3] = control 3'UTR Renilla luciferase suppression, dose response, counter-screen for Shn3 inhibitor project, cell-based, Clone20-Shn3RL, cherry-picked (AID 624133); assay type: functional
[4] = biological target: T1, Sentrin-specific protease 7 (Homo sapiens, UniProt Q9BQF6); assay type: functional;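 further: Luminescence-based dose-response confirmation of ultra-high-throughput screening hits, measuring inhibition of SENP7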
T1 sequence (Q9BQF6 whole entry): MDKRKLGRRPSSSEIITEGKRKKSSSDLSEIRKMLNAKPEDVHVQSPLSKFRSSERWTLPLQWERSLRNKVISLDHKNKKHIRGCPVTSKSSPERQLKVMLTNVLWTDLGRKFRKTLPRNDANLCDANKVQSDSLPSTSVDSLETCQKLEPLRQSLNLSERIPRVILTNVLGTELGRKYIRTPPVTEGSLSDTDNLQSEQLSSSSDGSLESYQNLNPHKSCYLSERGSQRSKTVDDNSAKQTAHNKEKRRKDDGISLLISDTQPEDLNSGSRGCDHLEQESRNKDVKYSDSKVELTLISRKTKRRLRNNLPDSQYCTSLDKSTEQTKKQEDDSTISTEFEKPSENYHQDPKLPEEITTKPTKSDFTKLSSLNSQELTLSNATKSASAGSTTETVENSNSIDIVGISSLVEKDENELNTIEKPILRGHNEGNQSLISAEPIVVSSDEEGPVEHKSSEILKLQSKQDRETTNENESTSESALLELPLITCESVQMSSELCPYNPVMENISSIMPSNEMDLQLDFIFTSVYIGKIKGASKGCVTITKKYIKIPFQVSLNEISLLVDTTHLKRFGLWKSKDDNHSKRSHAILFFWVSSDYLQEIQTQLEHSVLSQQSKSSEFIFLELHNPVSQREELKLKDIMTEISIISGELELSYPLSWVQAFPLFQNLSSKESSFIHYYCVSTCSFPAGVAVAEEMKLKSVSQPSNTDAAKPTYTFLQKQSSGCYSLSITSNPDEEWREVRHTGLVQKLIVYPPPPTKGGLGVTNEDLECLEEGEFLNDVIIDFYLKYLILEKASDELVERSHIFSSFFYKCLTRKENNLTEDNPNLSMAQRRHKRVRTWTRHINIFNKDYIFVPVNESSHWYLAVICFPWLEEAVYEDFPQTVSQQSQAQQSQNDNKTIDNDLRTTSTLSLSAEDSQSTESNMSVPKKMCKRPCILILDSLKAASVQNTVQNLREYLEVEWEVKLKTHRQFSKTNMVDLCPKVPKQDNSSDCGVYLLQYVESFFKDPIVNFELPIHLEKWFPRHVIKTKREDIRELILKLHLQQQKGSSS

[5] = biological target: T2, Sentrin-specific protease 6 (Homo sapiens, UniProt Q9GZR1); assay type: functional;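 further: Luminescence-based dose-response confirmatory assay of SENP6 inhibition, following up an ultra-high-throughput screen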
T2 sequence (Q9GZR1 whole entry): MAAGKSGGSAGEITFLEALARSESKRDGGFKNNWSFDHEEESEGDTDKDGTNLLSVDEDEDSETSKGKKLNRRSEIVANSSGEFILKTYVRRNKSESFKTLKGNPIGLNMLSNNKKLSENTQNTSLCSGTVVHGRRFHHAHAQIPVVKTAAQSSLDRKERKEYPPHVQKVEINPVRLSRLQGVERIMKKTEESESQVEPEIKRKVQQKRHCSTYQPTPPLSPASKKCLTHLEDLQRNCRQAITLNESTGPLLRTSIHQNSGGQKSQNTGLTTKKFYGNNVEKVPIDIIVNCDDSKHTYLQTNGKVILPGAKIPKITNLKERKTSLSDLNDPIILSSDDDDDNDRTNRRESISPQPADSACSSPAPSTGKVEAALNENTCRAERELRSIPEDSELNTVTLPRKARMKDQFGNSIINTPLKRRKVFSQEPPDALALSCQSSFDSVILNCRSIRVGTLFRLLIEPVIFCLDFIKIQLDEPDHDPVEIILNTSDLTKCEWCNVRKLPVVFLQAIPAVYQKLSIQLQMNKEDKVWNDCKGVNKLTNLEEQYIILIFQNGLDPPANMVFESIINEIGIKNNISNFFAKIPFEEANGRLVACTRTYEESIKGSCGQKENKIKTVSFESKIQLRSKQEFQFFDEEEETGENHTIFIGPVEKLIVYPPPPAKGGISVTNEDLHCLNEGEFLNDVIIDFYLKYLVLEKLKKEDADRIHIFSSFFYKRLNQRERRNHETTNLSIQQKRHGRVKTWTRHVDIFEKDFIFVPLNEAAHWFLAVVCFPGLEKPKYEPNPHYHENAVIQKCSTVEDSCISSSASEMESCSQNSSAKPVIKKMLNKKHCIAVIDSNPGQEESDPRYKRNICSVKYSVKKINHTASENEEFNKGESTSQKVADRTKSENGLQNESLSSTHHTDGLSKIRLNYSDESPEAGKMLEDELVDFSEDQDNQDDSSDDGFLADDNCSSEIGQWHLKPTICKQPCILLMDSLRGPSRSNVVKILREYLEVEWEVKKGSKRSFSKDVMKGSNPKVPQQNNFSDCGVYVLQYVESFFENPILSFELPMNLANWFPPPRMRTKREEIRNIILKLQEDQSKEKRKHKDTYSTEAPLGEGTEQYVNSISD

[6] = biological target: T3, Caspase-3 (Homo sapiens, UniProt P42574); assay type: functional;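 further: Dose-response selectivity test against caspase-3 for candidate inhibitors of sentrin-specific proteases (SENPs)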
T3 sequence (P42574 whole entry): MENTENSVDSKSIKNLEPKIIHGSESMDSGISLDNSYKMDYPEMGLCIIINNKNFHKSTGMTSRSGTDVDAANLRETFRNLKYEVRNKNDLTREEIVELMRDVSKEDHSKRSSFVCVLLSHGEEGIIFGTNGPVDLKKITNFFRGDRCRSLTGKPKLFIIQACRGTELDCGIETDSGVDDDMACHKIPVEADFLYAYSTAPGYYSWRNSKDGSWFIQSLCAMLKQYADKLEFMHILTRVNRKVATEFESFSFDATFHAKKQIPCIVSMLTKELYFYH

[7] = biological target: T4, Sentrin-specific protease 8 (Homo sapiens, UniProt Q96LD8); assay type: functional;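 further: luminescence read-out of SENP8 inhibition, dose-response confirmation following an ultra-high-throughput screen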
T4 sequence (Q96LD8 whole entry): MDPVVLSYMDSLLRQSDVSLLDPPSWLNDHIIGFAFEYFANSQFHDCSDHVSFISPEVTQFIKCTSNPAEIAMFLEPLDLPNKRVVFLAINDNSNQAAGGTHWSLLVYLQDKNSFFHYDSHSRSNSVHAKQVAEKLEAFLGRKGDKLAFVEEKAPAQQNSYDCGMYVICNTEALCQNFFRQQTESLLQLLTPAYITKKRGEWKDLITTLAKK

[8] = inhibitors of firefly luciferase expression or activity, dose response, H4 neuroglioma cells, luminescence (AID 1990); assay type: functional, cell-based
[9] = biological target: T5, Short transient receptor potential channel 4 (Mus musculus, UniProt Q9QUQ5); assay: mouse TRPC4 channel activators, dose response, cell-based, HEK293 TRPC4/mu-opioid, Fluo-4 calcium (AID 434937); assay type: functional
T5 sequence (Q9QUQ5 whole entry): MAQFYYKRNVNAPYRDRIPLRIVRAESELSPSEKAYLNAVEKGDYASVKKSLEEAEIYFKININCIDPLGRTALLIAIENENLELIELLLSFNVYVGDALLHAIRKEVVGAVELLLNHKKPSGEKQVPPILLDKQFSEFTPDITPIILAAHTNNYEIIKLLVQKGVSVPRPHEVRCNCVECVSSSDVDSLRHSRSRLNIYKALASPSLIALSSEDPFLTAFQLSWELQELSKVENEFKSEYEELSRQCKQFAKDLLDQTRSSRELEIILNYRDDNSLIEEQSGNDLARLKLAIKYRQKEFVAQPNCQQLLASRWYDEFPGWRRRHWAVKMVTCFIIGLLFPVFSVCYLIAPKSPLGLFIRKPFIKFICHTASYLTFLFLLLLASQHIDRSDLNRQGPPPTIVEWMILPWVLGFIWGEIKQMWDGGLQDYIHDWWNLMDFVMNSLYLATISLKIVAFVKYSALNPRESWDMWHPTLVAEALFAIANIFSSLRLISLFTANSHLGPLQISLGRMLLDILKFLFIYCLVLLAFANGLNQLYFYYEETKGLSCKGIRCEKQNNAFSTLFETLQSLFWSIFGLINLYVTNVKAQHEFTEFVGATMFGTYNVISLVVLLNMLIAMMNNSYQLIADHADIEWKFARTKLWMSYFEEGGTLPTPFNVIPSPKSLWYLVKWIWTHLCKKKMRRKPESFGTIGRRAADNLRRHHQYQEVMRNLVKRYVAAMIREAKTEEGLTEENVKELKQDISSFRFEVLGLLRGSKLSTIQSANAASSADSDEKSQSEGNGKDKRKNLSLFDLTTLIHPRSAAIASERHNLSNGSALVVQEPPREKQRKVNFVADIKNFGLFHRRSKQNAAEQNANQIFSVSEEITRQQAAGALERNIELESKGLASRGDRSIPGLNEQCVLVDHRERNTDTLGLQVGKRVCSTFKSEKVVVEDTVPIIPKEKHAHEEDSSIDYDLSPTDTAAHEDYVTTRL

[10] = inhibitors of SNCA 5'UTR-driven reporter translation, confirmation, H4 neuroglioma cells, luminescence (AID 1988); assay type: functional, cell-based
[11] = Luminescence Cell-Based Dose Response HTS to Identify Inhibitors of 5'UTR Stem-Loop Driven Prion Protein mRNA Translation in H4 Neuroglioblastoma Cells. [Related pubchem assays: 1827 (Project Summary), 1813 (Primary HTS)]; assay type: functional
[12] = test system: H4; assay: Luminescence Cell-Based Dose Response HTS to Identify Activators of 5'UTR Stem-Loop Driven Prion Protein mRNA Translation in H4 Neuroglioblastoma Cells. [Related pubchem assays: 1829 (Project Summary), 1814 (Primary HTS)]; assay type: functional; conditions: Homo sapiens
[13] = biological target: T6, Polyadenylate-binding protein 1 (Homo sapiens, UniProt P11940); assay: PABP1 MLLE–PAM2 binding inhibitor potency, dose response, biochemical, fluorescence polarization, FITC-PAM2 peptide (AID 602259); assay type: functional; conditions: read-out: IC50_Mean
T6 sequence (P11940 whole entry): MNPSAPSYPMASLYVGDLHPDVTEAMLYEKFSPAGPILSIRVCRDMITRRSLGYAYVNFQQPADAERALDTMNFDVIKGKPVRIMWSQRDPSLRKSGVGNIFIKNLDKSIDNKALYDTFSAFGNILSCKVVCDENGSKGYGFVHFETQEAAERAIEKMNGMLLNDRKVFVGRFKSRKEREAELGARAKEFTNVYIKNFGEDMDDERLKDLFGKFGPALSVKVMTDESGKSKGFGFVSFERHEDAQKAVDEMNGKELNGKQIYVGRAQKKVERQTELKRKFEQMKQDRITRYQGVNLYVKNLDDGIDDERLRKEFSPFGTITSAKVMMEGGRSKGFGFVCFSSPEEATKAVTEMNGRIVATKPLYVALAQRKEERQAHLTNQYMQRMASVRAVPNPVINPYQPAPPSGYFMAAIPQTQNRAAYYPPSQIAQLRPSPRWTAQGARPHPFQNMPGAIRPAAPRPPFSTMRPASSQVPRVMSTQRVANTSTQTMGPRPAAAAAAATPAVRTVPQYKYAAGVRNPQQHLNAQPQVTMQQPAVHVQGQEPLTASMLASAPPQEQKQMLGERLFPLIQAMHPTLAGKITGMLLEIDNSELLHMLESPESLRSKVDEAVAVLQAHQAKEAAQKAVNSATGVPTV

[14] = Luminescence Cell-Based Dose Confirmation HTS to Identify Activators of 5'UTR Stem-Loop Driven Alpha-Synuclein mRNA Translation in H4 Neuroglioblastoma Cells. [Related pubchem assays: 1829 (Project Summary), 1814 (Primary HTS)]; assay type: functional
[15] = biological target: T6, Polyadenylate-binding protein 1; assay: PABP1 MLLE–PAM2 interaction inhibitors, dose response, miRNA deadenylation inhibitor project, biochemical, fluorescence polarization, Cy5-PAM2 peptide, secondary (AID 602260); assay type: functional; conditions: read-out: IC50_Mean
[16] = microbe, parasite or virus in culture; assay type: functional; conditions: Mycobacterium tuberculosis
[17] = Luminescence Cell-Based Dose Response HTS to Identify Activators of Luciferase Translation or Activity in H4 […] Cells. [Related pubchem assays: 1829 (Project Summary), 1814 (Primary HTS)]; assay type: functional
[18] = test system: INS1; assay: beta cell apoptosis inhibitors, cytokine rescue, dose response, luminescence, retest (AID 449756); assay type: functional, cell-based; conditions: Rattus norvegicus;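 further: cell death triggered by IL-1 beta plus TNF-alpha plus IFN-gamma mixture; protective hits raise ATP signal compared with cytokine alone wells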
[19] = Luminescence Cell-Based Dose Retest to Confirm Inhibitors of Cancer Stem Cells. [Related pubchem assays (depositor defined):AID2717, AID2721]; assay type: functional; conditions: Homo sapiens
[20] = HEp-2 cell cytotoxicity, dose response, cytotoxicity control for RSV inhibitor project, HTS (AID 2410); assay type: functional; conditions: human respiratory syncytial virus
[21] = inhibitors of intracellular T. cruzi replication, confirmation, NIH3T3 host cells, beta-gal luminescence (AID 2044); assay type: functional, cell-based;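 further: intracellular parasites grown in NIH/3T3 mouse fibroblasts as host cells; luminescent beta-galactosidase reporter signal from transgenic T. cruzi replicating inside host cells; inhibitors lower the luminescence signal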
[22] = cytotoxicity toward NIH3T3 fibroblasts, dose response, counter-screen, cell-based, ATP luminescence, mouse fibroblasts (AID 2010); assay type: functional;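 further: cells exposed to compound for about 90 hours before reading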

CN(CC(=O)Nc1ccccc1Cl)C(=O)c1cccc(S(=O)(=O)N2CCN(Cc3ccccc3)CC2)c1
AC50 [1]: 3.47 µM (active)
AC50 [2]: 50.5 µM (active)
AC50 [3]: 4.83 µM (active)

N=c1oc2ccccc2cc1C(=O)Nc1ccccc1
IC50 [4]: 11.4 µM (active)
IC50 [5]: 15.6 µM (active)
IC50 [6]: 13.6 µM (active)
IC50 [7]: > 100 µM (inactive)

CN(C)CCCN(C(=O)c1ccc(S(=O)(=O)N2CCCc3ccccc32)cc1)c1nc2ccc(F)cc2s1
EC50 [8]: 12.6 µM (active)
EC50 [9]: 2.37 µM (active)
EC50 [10]: > 120 µM (not active)
EC50 [11]: > 120 µM (not active)

COc1ccc(C2CC(c3cccs3)=Nc3ccccc3S2)cc1 (configuration not stated)
EC50 [12]: 7.12 µM (active)
IC50 [13]: > 66 µM (inactive)
EC50 [14]: 7.19 µM (active)
IC50 [15]: > 66 µM (inactive)
CC50 [16]: > 40 µM (active)
EC50 [17]: 9.21 µM (active)

COc1ccccc1/C=C/CN1CCC(n2nccc2NC(=O)CCc2ccccc2)CC1
AC50 [1]: 1.91 µM (active)
AC50 [18]: 5.75 µM (active)
AC50 [2]: 42.3 µM (active)
AC50 [3]: 4.23 µM (active)

COc1ccc(Cc2c(C(C)(C)C)nc3c(C)cc(Br)cn23)c(C)c1
IC50 [13]: 52.7 µM (inactive)
IC50 [15]: > 66 µM (inactive)

Cc1ccc(C)c(S(=O)(=O)N2CCN(c3ncnc4sccc34)CC2)c1
AC50 [1]: 0.631 µM (active)
AC50 [18]: 3.41 µM (active)
AC50 [2]: 2.55 µM (active)
AC50 [3]: 2.38 µM (active)
AC50 [19]: 1.25 µM (active)

COc1cc(/C=C/C(=O)Nc2nnc(C(C)(C)C)s2)cc(OC)c1OC
IC50 [13]: > 66 µM (inactive)
IC50 [15]: > 66 µM (inactive)

CC(=O)c1cc(-c2ccccc2)[nH]c1N1CCOCC1
IC50 [13]: > 66 µM (inactive)
IC50 [15]: > 66 µM (inactive)

Cc1ccc(Oc2cc(-n3nc(C)cc3C)ncn2)cc1
IC50 [4]: 9.25 µM (active)
IC50 [5]: 35.7 µM (active)
IC50 [6]: 23.5 µM (active)
IC50 [7]: 54.7 µM (active)

Cc1csc2c(N3CCN(C(S)=Nc4ccc(F)cc4F)CC3)ncnc12
EC50 [9]: 1.88 µM (active)

Sc1nnc2c3ccccc3n(CCc3ccccc3)c2n1
IC50 [13]: > 66 µM (inactive)
CC50 [20]: 23.8 µM (active)
IC50 [15]: > 66 µM (inactive)
EC50 [21]: 2.69 µM (active)
EC50 [22]: > 60 µM (not active)

O=C(Oc1ccc2ccccc2c1Cl)N1CCCCCC1
IC50 [4]: 7.15 µM (active)
CC50 [20]: 27.6 µM (active)
IC50 [5]: 10.6 µM (active)
IC50 [6]: 17.4 µM (active)
IC50 [7]: 15.4 µM (active)
